Assay results from publication PMC12684391, “Mechanistic insights into the monotherapy and combination potential of FEN1 inhibition in cancer therapy” (Nucleic Acids Research, 2025).

What was measured:
MDA-MB-436 cells = experiment: Colony formation assay; type: cell-based
Description: Exponentially growing DLD-1, DLD-1 BRCA2^KO, SUM149PT, and MDA-MB-436 were seeded on 24-well plates at densities of 100, 400, 500, or 650 cells/well, respectively. Cells were treated with a serial dilution of FEN1 inhibitor and incubated for 11 days (DLD-1 and SUM149PT) or 14 days (DLD-1 BRCA2^KO and MDA-MB-436). Colonies were washed with PBS, fixed with 70% ethanol, and stained with 1% crystal violet solution (Sigma–Aldrich). Excess crystal violet solution was washed off using tap water and images were acquired using a GelCount Scanner (Oxford Optronix). Dye was solubilized with 10% acetic acid (VWR) and absorbance at 595 nm measured using a CLARIOstar plate reader (BMG LABTECH Ltd.). Raw absorbance data for each cell line were normalized to DMSO treatment. Data were fitted with a nonlinear regression curve (four parameters) to determine EC50 (half maximal inhibitory concentration) values.

[1] = tested on: SUM149PT 53BP1KO and SHLD2KO cells; experiment: Cell viability assay (CTG), 7 days, PARP inhibitor resistant models; type: cell-based; conditions: less sensitive than parental
Description: Cells were seeded in 150 μl of media in 96-well plates or in 70 μl of media in 384-well plates pre-dosed with compounds (8–10 points dose response) with a D300e digital dispenser (Tecan) and incubated for 24 h at 37°C and 5% CO2. Cell proliferation at the end of the assay (7 days) was measured using CTG (Promega, G9243). CTG luminescence was normalized to vehicle treated control for each cell line, and data were fitted with a nonlinear regression curve (four parameters) to generate compound sensitivity curves and determine IC50 or EC50 (half maximal inhibitory/effective concentration) values as indicated.

C[C@H](Oc1nn2c(c(O)c1=O)C(=O)N1CCOC[C@@H]1C2)c1ccc2ccc(Cl)cc2c1 [MSC778]
EC50 (MDA-MB-436 cells; Homo sapiens, 336 h, MDA-MB-436, 14 days, read-out: Colony survival EC50): 65 nM
Enhancement in sensitivity in colony survival versus 7-day viability assay (MDA-MB-436 cells; MDA-MB-436): 10 fold
Change in sensitivity of SUM149PT 53BP1KO and SHLD2KO cells versus parental cells [1]: 2 fold
